The results in this text go back to patent US9452177B2, “Vitamin D compounds and methods for reducing ocular hypertension (OHT)” (Wisconsin Alumni Research Foundation, priority 2008, dated 2016).

SMILES strings stand for the structures.

This assay concerns genes known to be involved in the regulation of IOP. The assay is described as follows: Rat intestine and mouse calvarial cell microarrays (gene expression). The procedure: Vitamin D-deficient rats were given one bolus intravenous dose of 730 ng of 1,25-(OH)2D3/kg of body weight in ethanol or ethanol vehicle (control). Rats were anesthetized with isofluorane and decapitated 1, 3, 6, 10 and 24 h after injection of the dose or vehicle. There were three rats in each group for each time point. Blood was collected at the same time for determination of changes in serum calcium concentration. For each rat, the first 15 cm of intestine (duodenum) was removed, slit longitudinally and scraped with a glass slide. The mucosa was placed in a vial with GTC extraction buffer supplemented with 2% of β-mercaptoethanol (PolyATtract System 1000, Promega Corp., Madison, Wis.), homogenized at high speed with PowerGen 700 (Fisher Scientific, Pittsburgh, Pa.), flash frozen in liquid N2 and stored at −80° C. Experiments were done in duplicate.
For each time point, Poly(A+) RNA was isolated from pooled homogenized mucosa of three 1,25-(OH)2D3 or three vehicle treated rats. The mRNA was isolated using the PolyATtract System 1000 (Promega Corp., Madison, Wis.). The mRNA was purified using an RNeasy kit (Qiagen, Chatsworth, Calif.). The quality, integrity and quantity of the Poly(A+) RNA were determined by agarose gel electrophoresis, UV absorption spectrophotometry and the use of Agilent Bioanalyser 2100 (Agilent Technologies, Palo Alto, Calif.).
Primary fetal mouse calvarial cells were isolated and cultured in αMEM containing 10% FBS as described [Shevde, 2002]. Cells were plated in the 2×6-well plates (5×10^5 cells/well) and cultured with medium changes performed on days 1 and 4. On day 4 cells on 1 plate were treated with 1,25(OH)2D3 (10 nM final concentration). Second plate was used as the control. After 24 h of incubation with 1,25(OH)2D3, cells were harvested and total RNA was isolated with Trizol reagent (Invitrogen Life Technologies, Carlsbad, Calif.). The mRNA was further purified using an RNeasy kit (Qiagen, Chatsworth, Calif.). The quality, integrity and quantity of the total RNA were assessed by agarose gel electrophoresis and UV absorption spectrophotometry. Experiments were done in triplicates. […]
The hybridization reaction and the automated hybridization procedure were performed by the Gene Expression Center at the Biotechnology Center at the University of Wisconsin-Madison as described (Kutuzova, 2004). Each probe was tested on an Affymetrix Test3 Array and the quality of the cDNA and cRNA was determined by a 3′/5′ ratio of housekeeping genes within the array (ubiquitin, rat glyceraldehyde 3-phosphate dehydrogenase, β-actin, and hexokinase). […] Expression data were analyzed using the Affymetrix Microarrray Suite software version 5.0 (MAS 5.0). […]

The mark [1] stands for this setting: rat 730 ng/kg i.v., mouse calvarial cells 10 nM, 24 h.

As for `C=C1/C(=C\C=C2/CCC[C@]3(C)[C@@H]([C@H](C)CCCC(C)(C)O)CC[C@@H]23)C[C@@H](O)C[C@@H]1O` [1,25-(OH)2D3, 1α,25-dihydroxyvitamin D3], where the note is “data not shown”, the “expression of vasoactive intestinal peptide, topoisomerase I, MMP2” value is on record as “decreased expression”. Under setting [1], the “expression of ACTG2, ATP1A1, AQP1, CEACAM, FN1, CD44 and TIMP3” value was “Significantly down-regulated”; the “expression of PTGER4, MMP3, MMP11 and MMP13” value is recorded as “Significant increases”; the “mRNA expression for carbonic anhydrase I (CAI), angiotensin I converting enzyme (ACE) and actin alpha (ACTA1)” value is “strong reductions”.
